Publication PMC2800054 (Journal of medicinal chemistry, 2008)
In brackets after ≈: the same amount, converted by molar mass.

How the values were obtained:
[1] = cited from earlier work
[2] = system: protein synthesis; settings: read-out: IC50 (inhibition of protein synthesis); in vitro protein translation assay
[3] = cited from earlier work; remark: listed apart in the source
[4] = target: T1, MbtA (Mycobacterium tuberculosis, UniProt P71716); settings: cited from earlier work; for ΔG^0 (free energy of binding): acyladenylate fragments
[5] = target: T1, MbtA; format: biochemical; settings: for fold loss of potency (KI^app) relative to 6 / fold increase in potency / binding affinity (KI^app) relative to 6: relative to parent compound 6
[6] = system: M. tuberculosis H37Rv; assay: M. tuberculosis H37Rv MIC assay; format: cell-based, Mycobacterium tuberculosis; settings: ratio of selectivity factors
[7] = target: T1, MbtA; format: binding; settings: ITC
[8] = target: cysteine adenylation domain in the multifunctional NRPS module known as HMWP2; settings: read-out: Ki^app; cited from earlier work
[9] = system: M. tuberculosis H37Rv; settings: under the assay conditions; positive control; cited from earlier work
[10] = saturating salicylic acid, 298 K

T1 sequence (P71716 whole entry, the tested form may be a part): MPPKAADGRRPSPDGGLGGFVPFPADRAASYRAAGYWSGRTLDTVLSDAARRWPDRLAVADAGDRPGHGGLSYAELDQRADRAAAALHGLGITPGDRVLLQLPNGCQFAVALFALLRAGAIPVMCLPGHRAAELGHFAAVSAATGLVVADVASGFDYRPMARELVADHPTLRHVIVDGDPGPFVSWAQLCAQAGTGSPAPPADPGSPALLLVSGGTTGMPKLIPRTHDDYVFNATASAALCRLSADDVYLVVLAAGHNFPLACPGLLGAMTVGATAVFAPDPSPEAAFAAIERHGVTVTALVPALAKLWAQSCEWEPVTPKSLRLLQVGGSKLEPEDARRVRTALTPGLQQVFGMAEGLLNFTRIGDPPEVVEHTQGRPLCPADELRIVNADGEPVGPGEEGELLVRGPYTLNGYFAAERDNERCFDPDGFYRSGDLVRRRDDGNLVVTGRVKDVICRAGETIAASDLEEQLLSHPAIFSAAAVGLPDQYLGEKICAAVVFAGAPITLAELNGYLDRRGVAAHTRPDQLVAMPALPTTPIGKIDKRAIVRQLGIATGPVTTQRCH

5′-O-[N-(salicyl)sulfamoyl]adenosine [Compound 6]
stability in human liver microsomes [1]: stable
IC50 [2]: > 100 µM
stability in human plasma [3]: stable

Nc1ncnc2c1ncn2[C@@H]1O[C@H](COP(=O)(O)O)[C@@H](O)[C@H]1O [AMP, adenosine monophosphate]
ΔG^0 (free energy of binding) [4]: -5.0 kcal/mol

CCN(CC)CC.Nc1ncnc2c1ccn2[C@@H]1O[C@H](COS(=O)(=O)NC(=O)c2ccccc2O)[C@@H](O)[C@H]1O [Compound 7, 7-Deaza-5′-O-[N-(2-hydroxybenzoyl)sulfamoyl]adenosine Triethylammonium Salt]
fold loss of potency (KI^app) relative to 6 [5]: 4 fold

CCN(CC)CC.O=C(NS(=O)(=O)OC[C@H]1O[C@@H](n2cnc3c(=O)[nH]cnc32)[C@H](O)[C@@H]1O)c1ccccc1O [Compound 9, 5′-O-[N-(2-Hydroxybenzoyl)sulfamoyl]inosine Triethylammonium Salt]
fold loss of potency (KI^app) relative to 6 [5]: 121 fold

CCN(CC)CC.CN(C)c1ncnc2c1ncn2[C@@H]1O[C@H](COS(=O)(=O)NC(=O)c2ccccc2O)[C@@H](O)[C@H]1O [Compound 10, 5′-O-[N-(2-Hydroxybenzoyl)sulfamoyl]-N^6,N^6′-dimethyladenosine Triethylammonium Salt]
fold activity difference between N-6-dimethyl 10 and N-6-methyl 11 ([5]; 10 versus 11): ~ 238 fold
fold loss of potency (KI^app) relative to 6 [5]: 58 fold

CC(C)CNc1ncnc2c1ncn2[C@@H]1O[C@H](COS(=O)(=O)[N-]C(=O)c2ccccc2O)[C@@H](O)[C@H]1O.[Na+] [Compound 15, 5′-O-[N-(2-Hydroxybenzoyl)sulfamoyl]-N^6-isobutyladenosine Sodium Salt]
fold loss of potency (KI^app) relative to 6 [5]: 1140 fold

CCN(CC)CC.O=C(NS(=O)(=O)OC[C@H]1O[C@@H](n2cnc3c(NC4CC4)ncnc32)[C@H](O)[C@@H]1O)c1ccccc1O [Compound 16, N^6-Cyclopropyl-5′-O-[N-(2-hydroxybenzoyl)sulfamoyl]adenosine Triethylammonium Salt]
enhancement in selectivity S relative to Sal-AMS 6 [6]: 16 fold
fold increase in potency / binding affinity (KI^app) relative to 6 [5]: 3.5 fold

O=C([N-]S(=O)(=O)OC[C@H]1O[C@@H](n2cnc3c(NC4CCC4)ncnc32)[C@H](O)[C@@H]1O)c1ccccc1O.[Na+] [Compound 17, N^6-Cyclobutyl-5′-O-[N-(2-hydroxybenzoyl)sulfamoyl]adenosine Sodium Salt]
fold loss of potency (KI^app) relative to 6 [5]: 124 fold

CCN(CC)CC.Nc1nc(I)nc2c1ncn2[C@@H]1O[C@H](COS(=O)(=O)NC(=O)c2ccccc2O)[C@@H](O)[C@H]1O [Compound 23, 5′-O-[N-(2-Hydroxybenzoyl)sulfamoyl]-2-iodoadenosine Triethylammonium Salt]
fold increase in potency / binding affinity (KI^app) relative to 6 [5]: 2 fold

CCN(CC)CC.Nc1nc(Nc2ccccc2)nc2c1ncn2[C@@H]1O[C@H](COS(=O)(=O)NC(=O)c2ccccc2O)[C@@H](O)[C@H]1O [Compound 24, 2-Anilino-5′-O-[N-(2-hydroxybenzoyl)sulfamoyl]adenosine Triethylammonium Salt]
fold increase in potency / binding affinity (KI^app) relative to 6 [5]: 7 fold

CCN(CC)CC.Nc1nc(C#Cc2ccccc2)nc2c1ncn2[C@@H]1O[C@H](COS(=O)(=O)NC(=O)c2ccccc2O)[C@@H](O)[C@H]1O [Compound 25, 5′-O-[N-(2-Hydroxybenzoyl)sulfamoyl]-2-(phenylethynyl)adenosine Triethylammonium Salt]
fold increase in potency / binding affinity (KI^app) relative to 6 [5]: 17 fold

CCN(CC)CC.Nc1nc(-c2ccccc2)nc2c1ncn2[C@@H]1O[C@H](COS(=O)(=O)NC(=O)c2ccccc2O)[C@@H](O)[C@H]1O [Compound 26, 5′-O-[N-(2-Hydroxybenzoyl)sulfamoyl]-2-phenyladenosine Triethylammonium Salt]
ΔG^0 [7]: -17.5 kcal/mol
ΔH [7, 10]: -15.9 ± 0.6 kcal/mol
−TΔS [7, 10]: -1.6 ± 1.4 kcal/mol

Nc1nc(-c2ccccc2-c2ccccc2)nc2c1ncn2[C@@H]1O[C@H](COS(=O)(=O)[N-]C(=O)c2ccccc2O)[C@@H](O)[C@H]1O.[Na+] [Compound 27, 2-(Biphen-2-yl)-5′-O-[N-(2-hydroxybenzoyl)sulfamoyl]adenosine Sodium Salt]
fold loss in potency compared to 26 ([5]; 27 compared to 26): 174 fold

Nc1ncnc2c1ncn2[C@@H]1O[C@H](COS(=O)(=O)NC(=O)[C@@H](N)CS)[C@@H](O)[C@H]1O [cysteyl-AMS]
Ki [8]: 0.24 µM

NNC(=O)c1ccncc1 [isoniazid]
MIC99 [9]: 0.18 µM (≈ 0.0247 µg/mL)

O=C(O)c1ccccc1O [salicylic acid]
ΔG^0 (free energy of binding) [4]: -7.9 kcal/mol
KA(Sal) ([4]; association constant with MbtA): 664000 M⁻¹
ΔH(Sal) ([4]; enthalpy with MbtA): -6.77 kcal/mol
Kd ([4]; weak ligand for ITC displacement): 1.63 ± 0.52 µM
